The source of these data is patent publication US12421254B2, “KRAS modulators and uses thereof” (Quanta Therapeutics, Inc., priority 2023, dated 2025).

Read-outs that look alike come from different tables or passages of the source.

The target of assay [1] is GST-tagged KRAS-G12V (2-169) (Homo sapiens, UniProt P01116, G12V). Briefly: Nucleotide exchange assay (NEA), SOS-mediated, HTRF, KRAS G12V. The assay is classed as biochemical. To be noted: Table 4; IC50 extracted at 90 min; 80 nM SOS. The method in brief:
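Exchange onto fluorescent GTP-DY-647P1 (150 nM final) catalysed by 80 nM SOS1cat was followed by Tb-anti-GST HTRF at RT for up to 90 min, after 1 h compound pre-incubation with 0.25 nM GST-tagged KRAS-G12V (2-169), pH 7.3. DMSO = 0%, no-SOS blank = 100%; 4-parameter IC50 taken at 90 min.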

Assay [2] has as its target T1, KRAS G12V/RAF1 (Homo sapiens, UniProt P01116, G12V).
T1 construct: KRAS (1-169) proteins were expressed in BL21 (DE3)-CodonPlus E. coli; His6-MBP (N, cleaved yes)
Nature of the assay: Protein-protein interaction (PPI) HTRF assay KRAS G12V/RAF1. The assay is classed as binding. To be noted: Table 3. The procedure:
(§1) When RAS proteins are in the active GTP-bound conformation, they bind the effector protein RAF1 at the N-terminus Ras-binding domain (RBD, residues 52-131) (Tran, et al., 2021). Homogenous time resolved fluorescence (HTRF) was used to monitor the interaction between wt or mutant KRAS and RAF1 or wt NRAS and RAF1. Compounds were assayed in the presence of KRAS G12D/V and RAF1 versus wt KRAS to assess activity against mutant and w.t. KRAS. Similarly, compounds were then assayed in the presence of w.t. NRAS and RAF1 to assess RAS isoform selectivity. In all assay formats, His-tagged RAF1 protein was incubated with the HTRF donor, anti-6His Tb Cryptate gold (Cisbio 61DB10RDF), and biotinylated RAS proteins were incubated with the HTRF acceptor, streptavidin-d2 (CisBio 610SADLA). The intensity of the fluorescence signal emitted is proportional to binding between the two proteins. The donor solution was prepared by mixing 16 nM His-tagged RAF1 in protein dilution buffer with 1:100 anti-6His Tb cryptate in PPI-Terbium detection buffer. 16 nM biotinylated RAS protein was diluted into protein dilution buffer (50 mM Tris-HCl pH 7.5, 150 mM NaCl, 0.1 mM MgCl2, 1 mM TCEP, 0.005% Tween20) and mixed with 1:2000 Streptavidin-d2 diluted in PPI-Terbium detection buffer (CisBio 61DB10RDF). 50× compound in DMSO was mixed with 16 nM KRAS-acceptor solution and incubated for 30 minutes at room temperature. After compound pre-incubation with KRAS, the RAF1 donor solution was added to the KRAS-acceptor solution and incubated for 1 hour at room temperature. The fluorescence signal emitted was monitored at 665 nm and 615 nm using an Envision multimode plate reader. The HTRF ratio (665/615) was calculated and normalized to 0% inhibition in the absence of compound and 100% inhibition in the presence of untagged RAF1 protein. PPI KRAS G12D/RAF1, KRAS G12V/RAF1, w.t. KRAS/RAF1 and NRAS/RAF1 IC50 (uM) values of selected compounds are depicted in Table 3 and Table 4 with compounds having a value <0.1 uM as ++++; ≥0.1 uM to 1 uM as +++; ≥1 uM to 10 uM as ++; ≥10 uM to 100 uM as +; and ≥100 uM as NA.

Assay [3] has as its target GST-tagged KRAS-G12D (2-169) (Homo sapiens, UniProt P01116, G12D). Nature of the assay: Nucleotide exchange assay (NEA), SOS-mediated, HTRF, KRAS G12D. Format: biochemical. To be noted: IC50 extracted at 30 min, 20 nM SOScat. The method in brief:
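SOS1cat-driven loading of fluorescent GTP-DY-647P1 (150 nM) onto GST-KRAS-G12D (2-169, 0.25 nM) read by time-resolved FRET; SOScat 20 nM, compound preincubated with KRAS 1 h at RT. Signal blanked to no-SOS reactions, normalized to DMSO; IC50 fitted from the 30-min read.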

In assay [4] the target is T2, KRAS G12D/RAF1 (Homo sapiens, UniProt P01116, G12D).
T2 construct: KRAS (1-169) proteins were expressed in BL21 (DE3)-CodonPlus E. coli; His6-MBP (N, cleaved yes)
T2 sequence (P01116 with tags, fused parts or gaps isoform P01116-2 G12D): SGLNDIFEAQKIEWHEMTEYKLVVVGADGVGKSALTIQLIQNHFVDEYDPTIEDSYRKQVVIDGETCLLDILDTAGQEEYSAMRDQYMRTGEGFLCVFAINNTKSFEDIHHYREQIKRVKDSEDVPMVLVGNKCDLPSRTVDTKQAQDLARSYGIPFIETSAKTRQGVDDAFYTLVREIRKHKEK
Briefly: Protein-protein interaction (PPI) HTRF assay KRAS G12D/RAF1. Format: binding. To be noted: Table 2. The procedure: as §1

For assay [5], the system named is phospho-ERK in SW620 (KRAS-G12V) cells. Briefly: pERK In Cell Western (ICW) assay (Method B), SW620. Format: cell-based. To be noted: Homo sapiens, SW-620, 3 h, Table 4. In outline: (§2)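 In-cell western read-out: phospho-ERK (800 nm) normalized to DRAQ5 (700 nm) per well, expressed as percent of blank control, IC50 from 4-parameter variable-slope fit. Compounds were applied as ½-log 9-point series for 3 h at 37 °C to cells plated the previous day.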

Assay [6] concerns phospho-ERK in GP2D (KRAS-G12D) cells. Briefly: pERK In Cell Western (ICW) assay (Method B), GP2D. The assay is classed as cell-based. To be noted: GP2d, 3 h, Table 4. In outline: as §2
Where [7] appears, read: Table 2, read-out: NEA-G12D (uM) IC50.
The mark [8] stands for this setting: Table 4, read-out: NEA G12D IC50.

Sequence of GST-tagged KRAS-G12D (2-169) (P01116 2-169 isoform P01116-2 G12D): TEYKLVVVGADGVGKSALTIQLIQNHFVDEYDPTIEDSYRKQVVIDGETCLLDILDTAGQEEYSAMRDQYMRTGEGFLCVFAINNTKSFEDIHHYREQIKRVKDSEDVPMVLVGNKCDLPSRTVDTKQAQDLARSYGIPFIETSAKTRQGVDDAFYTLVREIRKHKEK
Sequence of GST-tagged KRAS-G12V (2-169) (P01116 2-169 isoform P01116-2 G12V): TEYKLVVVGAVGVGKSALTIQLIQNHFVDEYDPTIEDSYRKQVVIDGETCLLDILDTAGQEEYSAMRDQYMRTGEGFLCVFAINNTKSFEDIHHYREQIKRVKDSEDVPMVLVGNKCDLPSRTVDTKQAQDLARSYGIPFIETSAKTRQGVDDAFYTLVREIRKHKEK
T1 sequence (P01116 with tags, fused parts or gaps isoform P01116-2 G12V): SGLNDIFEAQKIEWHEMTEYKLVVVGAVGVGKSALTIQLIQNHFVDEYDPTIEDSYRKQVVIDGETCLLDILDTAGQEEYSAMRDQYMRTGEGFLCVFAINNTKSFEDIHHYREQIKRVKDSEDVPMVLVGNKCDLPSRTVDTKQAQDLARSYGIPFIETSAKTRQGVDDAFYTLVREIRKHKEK

With `CC(C#N)COc1nc(OC[C@@]23CCCN2C[C@H](F)C3)nc(N2CC3(CCc4sc(N)c(C#N)c43)C2)n1` (stereo partly drawn) [Compound 17, 2-amino-1′-[4-(2-cyanopropoxy)-6-[[(2R,8S)-2-fluoro-1,2,3,5,6,7-hexahydropyrrolizin-8-yl]methoxy]-1,3,5-triazin-2-yl]spiro[5,6-dihydrocyclopenta[b]thiophene-4,3′-azetidine]-3-carbonitrile], the IC50 in assay [1] lay within 10 to 100 nM; in assay [2], 10 to 100 µM; in assay [3] (setting [7]), 0.1 to 1 µM; in assay [3] (setting [8]) it was 0.1 to 1 µM; in assay [4], 10 to 100 µM.
With `N#Cc1c(N)sc2c1C1(CC2)CCN(c2nc(OC[C@@]34CCCN3C[C@H](F)C4)nc(N3CCCC(C#N)CC3)n2)C1` (stereo partly drawn) [Compound 12, 2-amino-1′-[4-(4-cyanoazepan-1-yl)-6-[[(2R,8S)-2-fluoro-1,2,3,5,6,7-hexahydropyrrolizin-8-yl]methoxy]-1,3,5-triazin-2-yl]spiro[5,6-dihydrocyclopenta[b]thiophene-4,3′-pyrrolidine]-3-carbonitrile], the IC50 in assay [1] is 100 to 1000 nM; in assay [2], 10 to 100 µM; in assay [3] (setting [7]), 0.1 to 1 µM; in assay [3] (setting [8]), 0.1 to 1 µM; in assay [4] it was 10 to 100 µM.
For the compound `CC1(O)CC(F)CN(c2nc(OC[C@@]34CCCN3C[C@H](F)C4)nc(N3CC4(CCc5sc(N)c(C#N)c54)C3)n2)C1` (stereo partly drawn) [Compound 82, 2′-amino-1-(4-(5-fluoro-3-hydroxy-3-methylpiperidin-1-yl)-6-(((2R,7aS)-2-fluorotetrahydro-1H-pyrrolizin-7a(5H)-yl)methoxy)-1,3,5-triazin-2-yl)-5′,6′-dihydrospiro[azetidine-3,4′-cyclopenta[b]thiophene]-3′-carbonitrile], the IC50 in assay [1] was less than 10 nM; in assay [5] it was 100 to 1000 nM; in assay [6], 10 to 100 nM; in assay [3] (setting [8]), less than 0.01 µM.
The matching figures for `N#Cc1c(N)sc2c1C1(CC2)CN(c2nc(OC[C@@]34CCCN3C[C@H](F)C4)nc(N(CCO)Cc3cccnc3N)n2)C1` [Compound 107, 2-amino-1′-[4-[(2-amino-3-pyridyl)methyl-(2-hydroxyethyl)amino]-6-[[(2R,8S)-2-fluoro-1,2,3,5,6,7-hexahydropyrrolizin-8-yl]methoxy]-1,3,5-triazin-2-yl]spiro[5,6-dihydrocyclopenta[b]thiophene-4,3′-azetidine]-3-carbonitrile]: less than 10 nM, 10 to 100 nM, 10 to 100 nM and less than 0.01 µM.
The corresponding values for `C[C@H](c1cccnc1N)N(CC(F)F)c1nc(OC[C@@H]2CCCN2C)nc(N2CC3(C2)SCc2sc(N)c(C#N)c23)n1` [Compound 196, 2′-amino-1-(4-(((R)-1-(2-aminopyridin-3-yl)ethyl)(2,2-difluoroethyl)amino)-6-(((S)-1-methylpyrrolidin-2-yl)methoxy)-1,3,5-triazin-2-yl)-6′H-spiro[azetidine-3,4′-thieno[3,4-b]thiophene]-3′-carbonitrile] are less than 10 nM, less than 10 nM, 10 to 100 nM and less than 0.01 µM.
For the compound `CC(c1nccnc1N)N(CCO)c1nc(OC[C@@]23CCCN2C[C@H](F)C3)nc(N2CC3(CCc4sc(N)c(C#N)c43)C2)n1` (stereo partly drawn) [Compound 124, 2-amino-1′-[4-[1-(3-aminopyrazin-2-yl)ethyl-(2-hydroxyethyl)amino]-6-[[(2R,8S)-2-fluoro-1,2,3,5,6,7-hexahydropyrrolizin-8-yl]methoxy]-1,3,5-triazin-2-yl]spiro[5,6-dihydrocyclopenta[b]thiophene-4,3′-azetidine]-3-carbonitrile], the IC50 in assay [1] was less than 10 nM; in assay [5], 10 to 100 nM; in assay [6] it was 100 to 1000 nM; in assay [3] (setting [8]) it was less than 0.01 µM.
The corresponding values for `CC1(O)CCCCN(c2nc(OC[C@@]34CCCN3C[C@H](F)C4)nc(N3CC4(CCc5sc(N)c(C#N)c54)C3)n2)C1` (stereo partly drawn) [Compound 48, 2-amino-1′-[4-(3-hydroxy-3-methyl-azepan-1-yl)-6-[[(2R,8S)-2-fluoro-1,2,3,5,6,7-hexahydropyrrolizin-8-yl]methoxy]-1,3,5-triazin-2-yl]spiro[5,6-dihydrocyclopenta[b]thiophene-4,3′-azetidine]-3-carbonitrile] are less than 10 nM, 100 to 1000 nM, 100 to 1000 nM and 0.01 to 0.1 µM.
The corresponding values for `CCN(c1nc(OC[C@@]23CCCN2C[C@H](F)C3)nc(N2CC3(C2)SCc2sc(N)c(C#N)c23)n1)C(C)c1nonc1N` (stereo partly drawn) [Compound 171, 2-amino-1′-[4-[1-(4-amino-1,2,5-oxadiazol-3-yl)ethyl-ethyl-amino]-6-[[(2R,8S)-2-fluoro-1,2,3,5,6,7-hexahydropyrrolizin-8-yl]methoxy]-1,3,5-triazin-2-yl]spiro[6H-thieno[2,3-c]thiophene-4,3′-azetidine]-3-carbonitrile] are less than 10 nM, less than 10 nM, 10 to 100 nM and 0.01 to 0.1 µM.
